According to PubChem BioAssay (NCI):
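Following 48 hours of exposure in 96-well plates, responses at five concentrations were used to interpolate endpoints linearly. TGI is the concentration that stops growth completely.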

Columns and labels:
Assay in all cases: NCI anticancer screen, dose series, 48 h
LOX IMVI melanoma = tested on: LOX IMVI melanoma
HOP-62 NSCLC = tested on: HOP-62 NSCLC
SF-295 CNS = tested on: SF-295 CNS
T-47D breast = tested on: T-47D breast
RXF 393 renal = tested on: RXF 393 renal
SK-OV-3 ovarian = tested on: SK-OV-3 ovarian
IGROV1 ovarian = tested on: IGROV1 ovarian
786-0 renal = tested on: 786-0 renal
A498 renal = tested on: A498 renal
UO-31 renal = tested on: UO-31 renal
MDA-MB-435 = tested on: MDA-MB-435
HL-60(TB) leukemia = tested on: HL-60(TB) leukemia
SW-620 colon = tested on: SW-620 colon
UACC-62 melanoma = tested on: UACC-62 melanoma
MOLT-4 leukemia = tested on: MOLT-4 leukemia
NCI-H23 lung = tested on: NCI-H23 lung
OVCAR-4 ovarian = tested on: OVCAR-4 ovarian
K-562 leukemia = tested on: K-562 leukemia
OVCAR-3 ovarian = tested on: OVCAR-3 ovarian
NCI-H226 lung = tested on: NCI-H226 lung
HS 578T breast = tested on: HS 578T breast
HCT-15 colon = tested on: HCT-15 colon
SR leukemia = tested on: SR leukemia
MDA-MB-231 breast = tested on: MDA-MB-231 breast
OVCAR-8 ovarian = tested on: OVCAR-8 ovarian
SN12C renal = tested on: SN12C renal
SNB-75 CNS = tested on: SNB-75 CNS
EKVX NSCLC = tested on: EKVX NSCLC
ACHN renal = tested on: ACHN renal
NCI-H460 lung = tested on: NCI-H460 lung
SK-MEL-2 melanoma = tested on: SK-MEL-2 melanoma
SF-539 CNS = tested on: SF-539 CNS
RPMI-8226 leukemia = tested on: RPMI-8226 leukemia
OVCAR-5 ovarian = tested on: OVCAR-5 ovarian
HCT-116 colon = tested on: HCT-116 colon
KM12 colon = tested on: KM12 colon
SK-MEL-5 melanoma = tested on: SK-MEL-5 melanoma
CCRF-CEM leukemia = tested on: CCRF-CEM leukemia
UACC-257 melanoma = tested on: UACC-257 melanoma
M14 melanoma = tested on: M14 melanoma
A549 NSCLC = tested on: A549 NSCLC
DU-145 prostate = tested on: DU-145 prostate
MALME-3M melanoma = tested on: MALME-3M melanoma
COLO 205 colon = tested on: COLO 205 colon
U251 CNS = tested on: U251 CNS
TK-10 renal = tested on: TK-10 renal
BT-549 breast = tested on: BT-549 breast
HT29 colon = tested on: HT29 colon
CAKI-1 renal = tested on: CAKI-1 renal
NCI-H522 lung = tested on: NCI-H522 lung
HCC-2998 colon = tested on: HCC-2998 colon
SK-MEL-28 melanoma = tested on: SK-MEL-28 melanoma
HOP-92 NSCLC = tested on: HOP-92 NSCLC
SF-268 CNS = tested on: SF-268 CNS
PC-3 prostate = tested on: PC-3 prostate
SNB-19 CNS = tested on: SNB-19 CNS
NCI/ADR-RES ovarian = tested on: NCI/ADR-RES ovarian
MDA-N = tested on: MDA-N
MCF7 breast = tested on: MCF7 breast

CCOC(=O)CCC(NC(=O)c1ccc(Nc2cnc3ccc(C(F)(F)F)cc3n2)cc1)C(=O)OCC (centres undefined)
TGI (LOX IMVI melanoma): > 100 µM | TGI (HOP-62 NSCLC): > 100 µM | TGI (SF-295 CNS): > 100 µM | TGI (T-47D breast): > 100 µM | TGI (RXF 393 renal): > 90.2 µM | TGI (SK-OV-3 ovarian): > 60.5 µM | TGI (IGROV1 ovarian): > 47.2 µM | TGI (786-0 renal): > 56.6 µM | TGI (A498 renal): > 79 µM | TGI (UO-31 renal): > 100 µM | TGI (MDA-MB-435): > 100 µM | TGI (HL-60(TB) leukemia): > 100 µM | TGI (SW-620 colon): > 100 µM | TGI (UACC-62 melanoma): > 77.5 µM | TGI (MOLT-4 leukemia): > 100 µM | TGI (NCI-H23 lung): > 72.5 µM | TGI (OVCAR-4 ovarian): > 74.3 µM | TGI (K-562 leukemia): > 100 µM | TGI (OVCAR-3 ovarian): > 100 µM | TGI (NCI-H226 lung): > 100 µM | TGI (HS 578T breast): > 65.9 µM | TGI (HCT-15 colon): > 100 µM | TGI (SR leukemia): > 100 µM | TGI (MDA-MB-231 breast): 25.2 µM | TGI (OVCAR-8 ovarian): 33.8 µM | TGI (SN12C renal): > 100 µM | TGI (SNB-75 CNS): 29.9 µM | TGI (EKVX NSCLC): > 89.6 µM | TGI (ACHN renal): > 81.2 µM | TGI (NCI-H460 lung): > 100 µM | TGI (SK-MEL-2 melanoma): > 100 µM | TGI (SF-539 CNS): 39 µM | TGI (RPMI-8226 leukemia): > 100 µM | TGI (OVCAR-5 ovarian): > 100 µM | TGI (HCT-116 colon): > 100 µM | TGI (KM12 colon): > 85.3 µM | TGI (SK-MEL-5 melanoma): > 100 µM | TGI (CCRF-CEM leukemia): > 100 µM | TGI (UACC-257 melanoma): > 100 µM | TGI (M14 melanoma): > 100 µM | TGI (A549 NSCLC): > 100 µM | TGI (DU-145 prostate): > 100 µM | TGI (MALME-3M melanoma): > 100 µM | TGI (COLO 205 colon): > 100 µM | TGI (U251 CNS): > 100 µM | TGI (TK-10 renal): > 40.8 µM | TGI (BT-549 breast): 97.1 µM | TGI (HT29 colon): > 100 µM | TGI (CAKI-1 renal): > 65.1 µM | TGI (NCI-H522 lung): > 100 µM | TGI (HCC-2998 colon): > 100 µM | TGI (SK-MEL-28 melanoma): > 100 µM | TGI (HOP-92 NSCLC): > 43.1 µM | TGI (SF-268 CNS): > 100 µM | TGI (PC-3 prostate): > 100 µM | TGI (SNB-19 CNS): > 63.7 µM | TGI (NCI/ADR-RES ovarian): 52.7 µM | TGI (MDA-N): > 100 µM | TGI (MCF7 breast): > 100 µM
